In patent publication US20200216416A1, “QUINOLINE COMPOUNDS AS INHIBITORS OF TAM AND MET KINASES” (Array BioPharma Inc., priority 2019, published 2020):

How the values were obtained:
human MET kinase Y1230H = target: T1, human MET kinase Y1230H (Homo sapiens, UniProt P08581, Y1230H); test: c-Met Enzyme Assay, Y1230H mutant; type: binding; conditions: averaged IC50; Y1230H 5 nM; 60-minute incubation at 22° C.; read-out: Y1230 H IC50
T1 construct: GST-tagged recombinant human MET kinase domain; purchased Signal Chem
T1 sequence (P08581 1078-1345 Y1230H): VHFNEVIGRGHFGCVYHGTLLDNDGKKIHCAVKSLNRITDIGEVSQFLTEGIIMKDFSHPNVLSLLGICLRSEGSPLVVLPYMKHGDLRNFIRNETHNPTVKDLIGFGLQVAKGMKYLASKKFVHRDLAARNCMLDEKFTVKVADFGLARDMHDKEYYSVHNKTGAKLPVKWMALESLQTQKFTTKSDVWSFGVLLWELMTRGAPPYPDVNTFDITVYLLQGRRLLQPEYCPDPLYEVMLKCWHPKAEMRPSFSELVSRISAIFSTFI
Description: (§1) The affinity of compound binding to wild type and mutant human MET kinases was measured using Invitrogen's LanthaScreen™ Eu Kinase Binding technology. Briefly, GST-tagged recombinant human MET kinase domain from Signal Chem (see Table 8 below for concentration in assay) was incubated with 50 nM Alexa-Fluor® Tracer 236 (Invitrogen Cat No. PR9078A) and 2 nM Europium-anti-GST (Invitrogen Cat. No. A15116) along with test compound in a buffer consisting of 25 mM HEPES, pH 7.4, 10 mM MgCl2, 0.01% Triton X-100, 1mM DTT, and 2% DMSO. Compounds were typically prepared in a three-fold serial dilution in DMSO and added to the assay to give the appropriate final concentration. After a 60-minute incubation at 22° C., the reaction was measured using a PerkinElmer EnVision multimode plate reader via TR-FRET dual wavelength detection, and the percent of control (POC) calculated using a ratiometric emission factor. […] The POC values were fit to a 4 parameter logistic curve and the IC50 value is point where the curve crosses 50 POC.

human MET kinase Y1230C = target: T2, human MET kinase Y1230C (Homo sapiens, UniProt P08581, Y1230C); test: c-Met Enzyme Assay, Y1230C mutant; type: binding; conditions: averaged IC50; Y1230C 2 nM; 60-minute incubation at 22° C.; read-out: Y1230 C IC50
T2 construct: GST-tagged recombinant human MET kinase domain; purchased Signal Chem
T2 sequence (P08581 1078-1345 Y1230C): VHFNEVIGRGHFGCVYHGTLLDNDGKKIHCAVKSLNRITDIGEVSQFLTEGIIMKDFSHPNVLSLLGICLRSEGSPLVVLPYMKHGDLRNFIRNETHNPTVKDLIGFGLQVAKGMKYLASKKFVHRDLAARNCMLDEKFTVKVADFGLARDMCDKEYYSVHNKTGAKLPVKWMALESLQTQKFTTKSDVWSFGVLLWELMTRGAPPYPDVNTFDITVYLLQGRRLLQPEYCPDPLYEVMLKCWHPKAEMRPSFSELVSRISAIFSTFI
Description: as §1

human MET kinase Y1230S = target: T3, human MET kinase Y1230S (Homo sapiens, UniProt P08581, Y1230S); test: c-Met Enzyme Assay, Y1230S mutant; type: binding; conditions: averaged IC50; Y1230S 8 nM; 60-minute incubation at 22° C.; read-out: Y1230 S IC50
T3 construct: GST-tagged recombinant human MET kinase domain; purchased Signal Chem
T3 sequence (P08581 1078-1345 Y1230S): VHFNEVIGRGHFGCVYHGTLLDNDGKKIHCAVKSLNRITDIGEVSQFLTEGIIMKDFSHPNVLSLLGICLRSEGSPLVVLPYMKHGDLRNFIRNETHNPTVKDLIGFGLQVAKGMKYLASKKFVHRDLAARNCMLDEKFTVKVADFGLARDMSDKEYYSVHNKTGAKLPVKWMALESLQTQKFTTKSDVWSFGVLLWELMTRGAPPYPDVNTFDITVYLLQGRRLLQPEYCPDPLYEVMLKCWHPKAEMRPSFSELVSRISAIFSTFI
Description: as §1

human MET kinase D1228H = target: T4, human MET kinase D1228H (Homo sapiens, UniProt P08581, D1228H); test: c-Met Enzyme Assay, D1228H mutant; type: binding; conditions: averaged IC50; D1228H 2 nM; 60-minute incubation at 22° C.; read-out: D1228 H IC50
T4 construct: GST-tagged recombinant human MET kinase domain; purchased Signal Chem
T4 sequence (P08581 1078-1345 D1228H): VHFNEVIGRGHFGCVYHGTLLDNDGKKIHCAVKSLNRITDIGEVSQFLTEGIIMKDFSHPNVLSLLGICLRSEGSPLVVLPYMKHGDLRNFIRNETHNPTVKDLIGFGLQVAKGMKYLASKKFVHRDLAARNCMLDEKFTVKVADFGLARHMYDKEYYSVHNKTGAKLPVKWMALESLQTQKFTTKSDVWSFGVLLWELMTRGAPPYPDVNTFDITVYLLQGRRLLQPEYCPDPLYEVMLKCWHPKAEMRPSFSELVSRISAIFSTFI
Description: as §1

[1] = target: T5, His-tagged recombinant human MER cytoplasmic domain (Homo sapiens, UniProt Q12866); test: MER Enzyme Assay (LanthaScreen Eu Kinase Binding); conditions: averaged IC50; MER 5 nM; 60-minute incubation at 22° C.; TR-FRET
T5 construct: His-tagged recombinant human MER cytoplasmic domain
T5 sequence (Q12866 527-999 limits assumed): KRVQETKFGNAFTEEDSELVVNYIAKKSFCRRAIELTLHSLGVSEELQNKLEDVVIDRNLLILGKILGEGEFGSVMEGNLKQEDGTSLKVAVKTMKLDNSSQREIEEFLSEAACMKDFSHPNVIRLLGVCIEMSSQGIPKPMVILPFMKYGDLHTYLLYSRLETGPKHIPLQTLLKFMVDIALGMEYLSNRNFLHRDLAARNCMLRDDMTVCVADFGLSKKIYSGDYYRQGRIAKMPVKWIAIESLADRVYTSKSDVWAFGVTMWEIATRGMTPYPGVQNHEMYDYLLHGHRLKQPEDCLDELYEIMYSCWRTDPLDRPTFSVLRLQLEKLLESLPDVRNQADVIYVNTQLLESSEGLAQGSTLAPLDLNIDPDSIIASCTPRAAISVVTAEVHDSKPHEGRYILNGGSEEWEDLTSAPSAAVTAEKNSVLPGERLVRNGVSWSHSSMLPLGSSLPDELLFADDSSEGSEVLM
Description: (§2) Compounds disclosed herein were screened for their ability to inhibit […] kinase using Invitrogen's LanthaScreen™Eu Kinase Binding technology. His-tagged recombinant human MER cytoplasmic domain (5 nM) was incubated with 20 nM Alexa-Fluor® Tracer 236 (PR9078A), 2 nM biotinylated anti-His (Cat. No. M4408), and 2 nM europium-labeled Streptavidin (Cat. No. PV5899) along with test compound in a buffer consisting of 25 mM HEPES, pH 7.4, 10 mM MgCl 2, 0.01% Triton X-100, and 2% DMSO. Compounds were typically prepared in a threefold serial dilution in DMSO and added to the assay to give the appropriate final concentration. After a 60-minute incubation at 22° C., the reaction was measured using a PerkinElmer EnVision multimode plate reader via TR-FRET dual wavelength detection, and the percent of control (POC) was calculated using a ratiometric emission factor. […] The POC values are fit to a 4 parameter logistic curve and the IC50 value is point where the curve crosses 50 POC.

human MET kinase D1228N = target: T6, human MET kinase D1228N (Homo sapiens, UniProt P08581, D1228N); test: c-Met Enzyme Assay, D1228N mutant; type: binding; conditions: averaged IC50; D1228N 2 nM; 60-minute incubation at 22° C.; read-out: D1228 N IC50
T6 construct: GST-tagged recombinant human MET kinase domain; purchased Signal Chem
T6 sequence (P08581 1078-1345 D1228N): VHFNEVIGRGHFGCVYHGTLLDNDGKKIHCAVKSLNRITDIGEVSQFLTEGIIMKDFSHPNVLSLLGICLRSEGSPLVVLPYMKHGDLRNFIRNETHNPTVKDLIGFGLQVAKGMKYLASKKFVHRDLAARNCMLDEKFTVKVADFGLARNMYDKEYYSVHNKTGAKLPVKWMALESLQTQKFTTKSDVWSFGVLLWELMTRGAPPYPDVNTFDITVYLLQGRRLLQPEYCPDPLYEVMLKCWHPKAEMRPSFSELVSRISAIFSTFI
Description: as §1

[2] = target: T7, His-tagged recombinant human AXL cytoplasmic domain (Homo sapiens, UniProt P30530); test: AXL Enzyme Assay (LanthaScreen Eu Kinase Binding); conditions: averaged IC50; 60-minute incubation at 22° C.; TR-FRET
T7 construct: His-tagged recombinant human AXL cytoplasmic domain
T7 sequence (P30530 473-894 limits assumed): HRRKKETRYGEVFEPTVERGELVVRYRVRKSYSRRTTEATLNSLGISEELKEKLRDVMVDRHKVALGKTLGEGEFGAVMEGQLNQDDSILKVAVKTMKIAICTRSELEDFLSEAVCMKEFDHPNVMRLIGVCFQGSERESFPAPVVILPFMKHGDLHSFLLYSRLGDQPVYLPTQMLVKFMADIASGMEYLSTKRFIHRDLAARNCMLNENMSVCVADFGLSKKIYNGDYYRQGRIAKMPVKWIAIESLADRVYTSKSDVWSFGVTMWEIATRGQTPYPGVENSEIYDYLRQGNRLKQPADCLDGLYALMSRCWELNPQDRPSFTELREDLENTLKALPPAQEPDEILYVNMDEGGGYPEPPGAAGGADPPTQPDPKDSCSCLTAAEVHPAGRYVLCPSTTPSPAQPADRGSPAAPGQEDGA
Description: as §2, with “AXL” for “MER”, “domain” for “domain (5 nM)”, “MgCl2,” for “MgCl 2,”

SMILES	IC50 (human MET kinase Y1230H) [nM]	IC50 (human MET kinase Y1230C) [nM]	IC50 (human MET kinase Y1230S) [nM]	IC50 (human MET kinase D1228H) [nM]	IC50 [1] [nM]	IC50 (human MET kinase D1228N) [nM]	IC50 [2] [nM]
COc1cc2ncc(C#N)c(Oc3ccc(NC(=O)c4cn(C(C)C)cc(-c5ccc(F)cc5)c4=O)nc3)c2cc1OC [Example 57, N-(5-((3-cyano-6,7-dimethoxyquinolin-4-yl)oxy)pyridin-2-yl)-5-(4-fluorophenyl)-1-isopropyl-4-oxo-1,4-dihydropyridine-3-carboxamide]	789	526	514	532	29	1060	12
COc1cc2nccc(Oc3ccc(NC(=O)c4cn(CC(=O)N5CCOCC5)cc(-c5ccc(F)cc5F)c4=O)nc3)c2cc1OC [Example 15, 5-(2,4-difluorophenyl)-N-(5-((6,7-dimethoxyquinolin-4-yl)oxy)pyridin-2-yl)-1-(2-morpholino-2-oxoethyl)-4-oxo-1,4-dihydropyridine-3-carboxamide]	37.5	66.8	53.3	99.1	29	73.7	2
COc1cc2nccc(Oc3ccc(NC(=O)c4cn(CC5CCOCC5)cc(-c5ccc(F)cc5)c4=O)nc3)c2cc1OC [Example 8, N-(5-((6,7-dimethoxyquinolin-4-yl)oxy)pyridin-2-yl)-5-(4-fluorophenyl)-4-oxo-1-((tetrahydro-2H-pyran-4-yl)methyl)-1,4-dihydropyridine-3-carboxamide]	8.6	7.4	4.3	7.2	4	10.7	2
COc1cc2nccc(Oc3ccc(NC(=O)c4cn(C(C)C)cc(-c5ccc(F)cc5C)c4=O)nc3)c2cc1OC [Example 19, N-(5-((6,7-dimethoxyquinolin-4yl)oxy)pyridin-2-yl)-5-(4-fluoro-2-methylphenyl)-1-isopropyl-4-oxo-1,4-dihydropyridine-3-carboxamide]	2.7	2	1.8	1.6	2	3.6	2
COc1cc2nccc(Oc3ccc(NC(=O)c4cn(C(C)C)cc(-c5ccc(F)cc5)c4=O)nc3)c2cc1OC [Example 1]	2.9	1.5	1.3	1.8	3	3.4	1

Results, then the compound that gave them:

IC50 (human MET kinase Y1230H) [nM]	IC50 (human MET kinase Y1230C) [nM]	IC50 (human MET kinase Y1230S) [nM]	IC50 (human MET kinase D1228H) [nM]	IC50 [1] [nM]	IC50 (human MET kinase D1228N) [nM]	IC50 [2] [nM]	SMILES
328	173	226	258	33	646	5	COc1ccc2nccc(Oc3ccc(NC(=O)c4cn(C)cc(-c5ccc(F)cc5)c4=O)nc3)c2c1 [Example 41, 5-(4-fluorophenyl)-N-(5-((6-methoxyquinolin-4yl)oxy)pyridin-2-yl)-1-methyl-4-oxo-1,4-dihydropyridine-3-carboxamide]
103	83.5	89.2	57.4	5	100	2	COc1ccc(-c2cn(C(C)C)cc(C(=O)Nc3ccc(Oc4ccnc5cc(OC)c(OC)cc45)cn3)c2=O)cc1 [Example 30, N-(5-((6,7-dimethoxyquinolin-4yl)oxy)pyridin-2-yl)-1-isopropyl-5-(4-methoxyphenyl)-4-oxo-1,4-dihydropyridine-3-carboxamide]
5.4	5.5	4.6	8.4	4	9.7	2	COc1cc2nccc(Oc3ccc(NC(=O)c4cn(C5CCOCC5)cc(-c5ccc(F)cc5)c4=O)nc3)c2cc1OC [Example 12, N-(5((6,7-dimethoxyquinolin-4-yl)oxy)pyridin-2-yl)-5-(4-fluorophenyl)-4-oxo-1-(tetrahydro-2H-pyran-4-yl)-1,4-dihydropyridine-3-carboxamide]
32.6	13.1	14.3	14.5	11	26.3	4	CCOc1ccc2c(Oc3ccc(NC(=O)c4cn(C(C)C)cc(-c5ccc(F)cc5)c4=O)nc3)ccnc2c1 [Example 52, N-(5-((7-ethoxyquinolin-4-yl)oxy)pyridin-2-yl)-5-(4-fluorophenyl)-1-isopropyl-4-oxo-1,4-dihydropyridine-3-carboxamide]
11.2	2.7	5	5.2	5	13.3	1	COc1ccc2nccc(Oc3ccc(NC(=O)c4cn(C(C)C)c(C)c(-c5ccc(F)cc5)c4=O)nc3)c2c1 [Example 33, 5-(4-fluorophenyl)-1-isopropyl-N-(5-((6-methoxyquinolin-4-yl)oxy)pyridin-2-yl)-6-methyl-4-oxo-1,4-dihydropyridine-3-carboxamide]
2.7	1.7	2.1	1.9	3	3.2	2	COc1cc2nccc(Oc3ccc(NC(=O)c4cn(CCN(C)C)cc(-c5ccc(F)cc5F)c4=O)nc3)c2cc1OC [Example 44, 5-(2,4-difluorophenyl)-N-(5-((6,7-dimethoxyquinolin-4-yl)oxy)pyridin-2-yl)-1-(2-(dimethylamino)ethyl)-4-oxo-1,4-dihydropyridine-3-carboxamide]
